Results on two molecules are retold here after patent publication US10670605B2, “Cysteine reactive probes and uses thereof” (The Scripps Research Institute, priority 2015, dated 2020).

The structures appear in SMILES notation. Where a name gives a salt, the structure may show the parent alone.

Data set [1] has as its system primary human T cells. The experiment in a line: IL-2 release (ELISA), anti-CD3 + anti-CD28 stimulated T cells. It counts as cell-based. The following applies: anti-CD3, anti-CD28 stimulation, 8 h. On the procedure:
96-well plates were coated with anti-CD3 (1:200; BioXcell) and anti-CD28 (1:500; 302933; BioLegend) in PBS (100 μL/well) overnight at 4° C. The plates were then washed twice with PBS and to each well was added 500,000 primary T cells in 100 μL of RPMI supplemented with 10% FBS, glutamine, and Pen-Strep. Cells were then treated with 100 μL of media containing compound at the indicated concentrations (final well volume of 200 μL). Cells were left at 37° C. in a 5% CO2 incubator for the indicated periods of time and harvested by centrifugation (500 g, 8 min, 4° C.), followed by washing with PBS. T cells were harvested and stimulated as described above. At the indicated time points, cell culture supernatants were collected and IL-2 levels were measured in clear microplates (991427; R&D Systems) according to the manufacturer's instructions (Human IL-2 DuoSet ELISA; DY202; R&D Systems). Plates were read in a Gemini SpectraMax 250 microplate reader set to 450 nm. Data represent mean±SE for four experiments per group.
(In general: In an ELISA, binding on a coated surface is turned into a signal by an enzyme label.)

The subject of data set [2] is primary human T cells.
Description: Cells were transferred to a round bottom 96-well plate (0720095; Fisher Scientific), harvested by centrifugation (500 g, 3 min, 4° C.), washed with PBS, and stained with LIVE/DEAD fixable cell stain (L23105; ThermoFisher) according to the manufacturer's instructions. Briefly, one vial of LIVE/DEAD stain was resuspended in 50 uL of DMSO and added to 20 mL of PBS. To each well of the 96-well plate was added 200 μL of the stain, and the cells were incubated on ice for 30 min in the dark. After this time, cells were pelleted and washed once with PBS, then stained for cell surface antigens.
The subject of data set [3] is intracellular GSH in primary human T cells. As to the kind of experiment: Quantification of cellular glutathione (GSH) levels. It counts as cell-based. The following applies: DMF 50 μM 2 h; BSO 2.5 mM 4 h. On the procedure:
Primary human T cells (2.5 million cells/mL, 20 mL per condition) were treated as indicated, harvested by centrifugation (500 g, 8 min, 4° C.), and washed twice with PBS. To the cell pellet was added 75 μL of lysis buffer. […] Protein concentrations were adjusted to at least 5 mg/mL and the assay performed according to manufacturer's instructions (Sigma-Aldrich, CS 1020). Data represent mean±SE for two biological replicates.

A further data set addresses T1, USP48 C39 (Q86UV5) (Homo sapiens, UniProt Q86UV5).
T1 sequence (Q86UV5 1-1035): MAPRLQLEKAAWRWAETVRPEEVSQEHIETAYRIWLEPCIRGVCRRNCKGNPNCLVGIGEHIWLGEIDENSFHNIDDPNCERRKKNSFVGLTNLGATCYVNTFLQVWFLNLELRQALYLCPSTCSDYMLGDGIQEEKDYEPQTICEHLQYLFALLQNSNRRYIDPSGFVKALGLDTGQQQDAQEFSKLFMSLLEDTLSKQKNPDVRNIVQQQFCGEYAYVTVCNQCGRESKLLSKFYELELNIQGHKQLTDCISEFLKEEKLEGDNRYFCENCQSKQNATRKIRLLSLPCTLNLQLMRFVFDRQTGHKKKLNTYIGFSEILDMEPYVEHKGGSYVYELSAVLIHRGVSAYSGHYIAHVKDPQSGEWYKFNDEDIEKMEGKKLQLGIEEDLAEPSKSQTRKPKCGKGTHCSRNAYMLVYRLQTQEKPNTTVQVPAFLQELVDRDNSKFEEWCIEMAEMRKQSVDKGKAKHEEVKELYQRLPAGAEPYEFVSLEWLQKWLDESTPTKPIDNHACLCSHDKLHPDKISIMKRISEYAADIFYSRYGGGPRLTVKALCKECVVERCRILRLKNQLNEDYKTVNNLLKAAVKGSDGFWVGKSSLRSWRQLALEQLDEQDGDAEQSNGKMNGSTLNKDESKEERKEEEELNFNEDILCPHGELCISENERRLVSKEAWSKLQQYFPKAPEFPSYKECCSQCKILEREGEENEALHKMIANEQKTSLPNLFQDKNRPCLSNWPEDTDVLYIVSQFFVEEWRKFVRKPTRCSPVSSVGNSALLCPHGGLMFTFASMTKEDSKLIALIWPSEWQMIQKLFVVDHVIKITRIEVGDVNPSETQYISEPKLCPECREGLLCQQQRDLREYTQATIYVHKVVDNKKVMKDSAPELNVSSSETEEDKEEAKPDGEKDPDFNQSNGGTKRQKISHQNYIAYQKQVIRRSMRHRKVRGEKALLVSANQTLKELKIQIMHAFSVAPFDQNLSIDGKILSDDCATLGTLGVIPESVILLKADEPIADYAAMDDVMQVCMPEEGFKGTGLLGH
The experiment in a line: Competitive isoTOP-ABPP in situ. It is filed as cell-based. The following applies: fragment 2 at 200 μM, MDA-MB-231 cells.

Another data set deals with WAPAL C160 (Q7Z5K2) (Homo sapiens, UniProt Q7Z5K2). As to the kind of experiment: Competitive isoTOP-ABPP in situ. It is filed as cell-based. The following applies: fragment 2 at 200 μM, MDA-MB-231 cells.
Sequence of WAPAL C160 (Q7Z5K2) (Q7Z5K2 whole entry, the tested form may be a part): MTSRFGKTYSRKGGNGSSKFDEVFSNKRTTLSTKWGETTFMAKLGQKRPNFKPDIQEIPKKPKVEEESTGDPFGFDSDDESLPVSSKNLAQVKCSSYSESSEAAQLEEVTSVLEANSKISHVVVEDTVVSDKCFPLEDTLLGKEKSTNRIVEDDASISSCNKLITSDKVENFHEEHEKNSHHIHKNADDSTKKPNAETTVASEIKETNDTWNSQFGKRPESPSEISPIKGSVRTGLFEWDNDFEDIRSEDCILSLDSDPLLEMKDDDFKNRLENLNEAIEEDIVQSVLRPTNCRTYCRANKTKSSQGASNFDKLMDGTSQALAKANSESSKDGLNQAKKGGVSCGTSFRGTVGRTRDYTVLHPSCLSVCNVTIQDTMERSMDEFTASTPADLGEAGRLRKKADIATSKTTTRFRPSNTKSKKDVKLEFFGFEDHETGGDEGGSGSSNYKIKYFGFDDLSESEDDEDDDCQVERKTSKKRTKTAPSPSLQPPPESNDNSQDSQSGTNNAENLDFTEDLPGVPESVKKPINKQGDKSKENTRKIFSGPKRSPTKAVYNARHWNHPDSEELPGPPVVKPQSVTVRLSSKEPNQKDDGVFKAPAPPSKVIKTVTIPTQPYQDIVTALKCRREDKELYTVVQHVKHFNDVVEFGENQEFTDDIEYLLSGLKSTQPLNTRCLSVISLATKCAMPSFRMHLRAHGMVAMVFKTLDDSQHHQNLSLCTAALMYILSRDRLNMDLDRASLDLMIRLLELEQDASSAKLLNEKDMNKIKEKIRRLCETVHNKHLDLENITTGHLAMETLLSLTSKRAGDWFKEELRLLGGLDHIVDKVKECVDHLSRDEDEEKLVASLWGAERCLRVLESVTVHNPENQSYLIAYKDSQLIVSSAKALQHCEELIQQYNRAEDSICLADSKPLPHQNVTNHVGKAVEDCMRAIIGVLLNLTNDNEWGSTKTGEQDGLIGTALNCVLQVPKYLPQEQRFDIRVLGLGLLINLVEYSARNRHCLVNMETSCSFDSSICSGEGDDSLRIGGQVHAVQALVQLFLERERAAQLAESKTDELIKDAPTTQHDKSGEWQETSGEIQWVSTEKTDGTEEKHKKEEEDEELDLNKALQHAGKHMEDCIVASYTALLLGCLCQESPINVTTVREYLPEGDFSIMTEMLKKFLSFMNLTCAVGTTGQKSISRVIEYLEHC
The target of another data set is T2, KDM4B C694 (O94953) (Homo sapiens, UniProt O94953).
T2 sequence (O94953 1-1096): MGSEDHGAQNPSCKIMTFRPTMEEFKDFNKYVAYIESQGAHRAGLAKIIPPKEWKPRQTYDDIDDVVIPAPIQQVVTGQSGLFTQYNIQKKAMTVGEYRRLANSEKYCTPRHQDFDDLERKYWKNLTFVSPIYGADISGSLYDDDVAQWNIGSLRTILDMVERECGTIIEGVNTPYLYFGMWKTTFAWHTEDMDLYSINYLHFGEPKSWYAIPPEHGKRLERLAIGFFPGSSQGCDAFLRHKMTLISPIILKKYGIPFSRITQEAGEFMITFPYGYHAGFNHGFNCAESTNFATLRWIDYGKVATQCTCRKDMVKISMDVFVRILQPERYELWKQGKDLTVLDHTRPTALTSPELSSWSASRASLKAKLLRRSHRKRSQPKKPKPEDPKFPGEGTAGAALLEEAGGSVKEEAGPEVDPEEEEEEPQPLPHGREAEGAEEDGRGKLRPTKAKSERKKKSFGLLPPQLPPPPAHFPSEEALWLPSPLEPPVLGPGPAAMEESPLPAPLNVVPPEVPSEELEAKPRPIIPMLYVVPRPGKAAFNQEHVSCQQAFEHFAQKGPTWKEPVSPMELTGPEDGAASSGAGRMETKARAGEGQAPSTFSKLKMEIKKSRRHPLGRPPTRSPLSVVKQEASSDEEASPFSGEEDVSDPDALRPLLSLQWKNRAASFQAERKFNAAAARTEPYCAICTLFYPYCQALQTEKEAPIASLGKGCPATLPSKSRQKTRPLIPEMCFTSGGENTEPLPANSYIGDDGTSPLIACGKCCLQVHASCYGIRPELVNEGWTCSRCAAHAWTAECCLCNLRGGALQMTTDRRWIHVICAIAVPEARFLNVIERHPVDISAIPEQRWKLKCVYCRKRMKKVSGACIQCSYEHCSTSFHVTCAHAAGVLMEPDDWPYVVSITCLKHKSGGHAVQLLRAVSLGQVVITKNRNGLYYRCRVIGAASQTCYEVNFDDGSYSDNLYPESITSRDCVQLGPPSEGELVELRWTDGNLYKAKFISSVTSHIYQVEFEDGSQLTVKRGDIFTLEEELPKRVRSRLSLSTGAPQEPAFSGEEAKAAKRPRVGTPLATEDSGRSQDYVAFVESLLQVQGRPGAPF
As to the kind of experiment: Competitive isoTOP-ABPP in situ. It counts as cell-based. The following applies: fragment 2 at 200 μM, MDA-MB-231 cells.

Regarding `COC(=O)/C=C/C(=O)OC` [DMF, dimethyl fumarate], the “secretion of IL-2” value with primary human T cells [1] is given as “strongly inhibited”. Moreover, in the data set on primary human T cells [2], the T cell viability entry is given as “did not impair”. In addition, the “cellular GSH content” value in data set [3] is given as “significant decrease”.
Regarding `COc1ccc2c(c1)CCCN2C(=O)CCl` [compound 2], the “isoTOP-ABPP reactivity profile (ratio) 2_200 μM_in-situ_231” value at USP48 C39 (Q86UV5), at WAPAL C160 (Q7Z5K2) and on KDM4B C694 (O94953) was 20.0 each time.
